Reference: a melting point compilation (Tetko et al.; mined from patent text by program, amines drawn as free bases though some values may be those of a salt)

With `CCOP(=O)(OCC)C(F)(F)c1ccc(CN(Cc2ccc(C(F)(F)P(=O)(OCC)OCC)cc2)C(=O)c2ccccc2)cc1` as the molecule, how does the melting point read?
The melting point was 87 to 89 °C.

For `Cc1ccc(CCc2cc(Br)c3nc(N)sc3c2)nc1`, which melting point is on record?
The melting point was 216 to 218 °C.

Which melting point does the source give for `CC(=O)Nc1ccc2c(c1)/C(=N\NC(N)=O)C(=O)N2CCN(C(C)C)C(C)C` here?
The melting point was 135 to 137 °C.

With `c1ccc2c3c([nH]c2c1)CCC3` as the molecule, how does the melting point read?
Its melting point is 135 °C.

For `Cc1ccc(N=CN(C)SN(C2CCCCC2)C2CCCCC2)c(C)c1`, which melting point is on record?
The melting point was 97 to 98 °C.

Which melting point does the source give for `CC(=O)Nc1nc(C)c(S(=O)(=O)N2CCC(O)C2)s1` (racemic) here?
The melting point was 241 °C.

For `Cc1oc(-c2ccccc2)nc1CCOc1ccc(C[C@@H](C(=O)O)N2CCN(S(=O)(=O)c3ccccc3F)CC2)cc1`, which melting point is on record?
The melting point was 170 to 172 °C.

With `CCOP(=O)(OCC)OC(=Cc1nccn1C)C(F)(F)F` as the molecule, how does the melting point read?
The melting point was 54 to 64 °C.

With `C#CCN(C(CCn1c(=O)[nH]cc(C(F)(F)F)c1=O)C(=O)NO)S(=O)(=O)c1ccc(Oc2ccccc2)cc1` (stereo not drawn) as the molecule, how does the melting point read?
The melting point was 170 to 171 °C.

With `CCC(=C(c1ccccc1)c1ccc(OCC(O)CO)cc1)C1CCCC1` (stereo not drawn) as the molecule, how does the melting point read?
Its melting point is 89 to 91 °C.

For `OC(COc1ccc(-c2ccc(Br)cc2)cc1)CN1CCCC1` (stereo not drawn), which melting point is on record?
Its melting point is 121 to 122 °C.

Which melting point does the source give for `COC(=O)CSCC(=O)c1ccc2[nH]c(=O)[nH]c2c1` here?
The melting point was 177 to 178 °C.

Which melting point does the source give for `COCc1cnc2c(NC(=O)c3c(Cl)cccc3Cl)ccc(C)c2c1-n1ccnc1` here?
Its melting point is 179 to 180 °C.

Which melting point does the source give for `Cc1ccc(OC2CCN(C(=O)CNc3ccc4[nH]c(=O)sc4c3)CC2)cc1` here?
The melting point was 189 to 191 °C.

For `O=C1Nc2ccc(-c3cccc([N+](=O)[O-])c3)cc2C2(CCCCC2)O1`, which melting point is on record?
Its melting point is 245 to 246 °C.

For `CC(C)(C)c1cc(SC2CC(=O)N(C3CCCCC3)C2=O)cc(C(C)(C)C)c1O` (stereo not drawn), which melting point is on record?
Its melting point is 94 to 98 °C.

Which melting point does the source give for `O=C(Nc1ccc(Oc2ccnc(N3CCCC3)n2)c2ccccc12)c1ccccc1N1CCCC(F)C1` (stereo not drawn) here?
The melting point was 111 to 113 °C.

With `Cc1ccc(C=C2CCc3c2oc2ccc(C(=O)O)cc2c3=O)c(C)c1` as the molecule, how does the melting point read?
Its melting point is 329 to 331 °C.

With `COC(=O)c1cccc2cc(C)[nH]c12` as the molecule, how does the melting point read?
Its melting point is 170 to 173 °C.

Which melting point does the source give for `Fc1ccc(-c2nc(CCCSc3ccccc3)[nH]c2-c2ccncc2)cc1` here?
The melting point was 98 to 99 °C.

For `CC(=O)N=C(O)c1cc(C(O)=NCCOC(C)=O)c(C(=O)O)cc1C(=O)O`, which melting point is on record?
Its melting point is 176 to 178 °C.

With `O=Cc1c[nH]c2cccc(O)c12` as the molecule, how does the melting point read?
The melting point was 196 to 200 °C.

For `Clc1ccc(C=Cc2ccc(CBr)cc2)cc1`, which melting point is on record?
Its melting point is 130 to 132 °C.

For `Nc1ccc(OCC(O)CN2CCN(c3ccccc3C(=O)O)CC2)cc1` (stereo not drawn), which melting point is on record?
The melting point was 260 to 263 °C.

For `CC1(C)C(=O)N(c2ccc(N)c(C(F)(F)F)c2)C(=O)N1CCCCCN1C(=O)N(c2ccc(N)c(C(F)(F)F)c2)C(=O)C1(C)C`, which melting point is on record?
Its melting point is 108 to 109 °C.

Which melting point does the source give for `CC(C)(C)OC(=O)Nc1ccc2ccc(C#N)cc2c1Br` here?
Its melting point is 139 to 141 °C.

With `C#CCCOc1ccc(C=O)cc1OC` as the molecule, how does the melting point read?
Its melting point is 101 to 102 °C.

Which melting point does the source give for `COc1ccc(CCC(=O)NCc2ccccc2)cc1` here?
The melting point was 92 to 94 °C.

Which melting point does the source give for `CC(C)(O)c1cc(C#N)ccc1O` here?
Its melting point is 129 to 130 °C.

With `CC(=O)c1c(F)cccc1N1CCN(CCCCOc2ccc3c(n2)NC(=O)CC3)CC1` as the molecule, how does the melting point read?
Its melting point is 64 °C.

For `CC(CCC(=O)O)C1CCC2C3C(=O)CC4CC(OC=O)CCC4(C)C3CC(OC=O)C12C` (stereo not drawn), which melting point is on record?
The melting point was 208 to 211 °C.

With `C[C@@H](n1ncn(-c2ccc(OCC(F)(F)C(F)F)cc2)c1=O)[C@](O)(C=O)c1ccc(F)cc1F` as the molecule, how does the melting point read?
The melting point was 134 to 136 °C.

With `CN1CCN(CCOc2cccc3c2c2cccc4c2n3C(c2ccccc2)CO4)CC1` (stereo not drawn) as the molecule, how does the melting point read?
Its melting point is 57 °C.

Which melting point does the source give for `Nc1nnc(-c2ccc3occ(-c4cccc(OC(F)(F)F)c4)c3c2)o1` here?
The melting point was 182 to 183 °C.

Which melting point does the source give for `CC(=O)NN1CCN(C(=O)Cn2c(=O)sc3ccc(Cl)cc32)CC1` here?
The melting point was 284 to 285 °C.

With `COCOC1=C(C(N)=O)CC(C#N)(c2cccc(OCC3CC3)c2)CC1` (stereo not drawn) as the molecule, how does the melting point read?
Its melting point is 120 to 122 °C.

Which melting point does the source give for `CCOC(=O)c1nc(-c2ccc([N+](=O)[O-])c(C)c2)[nH]c1-c1ccc(OC)cc1` here?
The melting point was 187 to 191 °C.

For `O=C(Nc1nc(C(F)(F)F)co1)C1c2cc(F)ccc2Oc2ccc(F)cc21`, which melting point is on record?
Its melting point is 259 °C.
